Laboratory results reported in PubChem BioAssay AID248 (DTP/NCI, 2004).
Where “and” joins values, the source holds several entries; their conditions need not be identical. Equal values may be shown once. Toxic doses and inconclusive results are not listed. No stated cut-off is given here; in the data, active means T/C of 150% or more; inactive means T/C below 125%.

Test system: L1210 leukemia ip in BDF1 mice, survival T/C
Test: NCI In Vivo Anticancer Drug Screen. Data for tumor model L1210 Leukemia (intraperitoneal) in B6D2F1 (BDF1) mice
Conditions: endpoint: mean survival time, higher = longer survival
How it was run: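 In this screen, tumor-bearing mice given compound are compared to those given vehicle, and their survival values are reported as a treated-to-control quotient.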

[1] = dose: 100.0 mg/kg/injection, schedule: Q04DX002 (ip), vehicle: Klucel (hydroxypropylcellulose) (HPC)
[2] = dose: 200.0 mg/kg/injection, schedule: Q04DX002 (ip), vehicle: Klucel (hydroxypropylcellulose) (HPC)
[3] = dose: 50.0 mg/kg/injection, schedule: Q01DX009 (ip), vehicle: saline with Tween-80
[4] = dose: 100.0 mg/kg/injection, schedule: Q01DX009 (ip), vehicle: saline with Tween-80
[5] = dose: 100.0 mg/kg/injection, schedule: Q01DX001 (ip), vehicle: Klucel (hydroxypropylcellulose) (HPC)
[6] = dose: 200.0 mg/kg/injection, schedule: Q01DX001 (ip), vehicle: Klucel (hydroxypropylcellulose) (HPC)
[7] = dose: 50.0 mg/kg/injection, schedule: Q04DX002 (ip), vehicle: Klucel (hydroxypropylcellulose) (HPC)
[8] = dose: 25.0 mg/kg/injection, schedule: Q01DX009 (ip), vehicle: saline with Tween-80
[9] = dose: 100.0 mg/kg/injection, schedule: Q04DX003 (ip), vehicle: saline with Tween-80
[10] = dose: 200.0 mg/kg/injection, schedule: Q04DX003 (ip), vehicle: saline with Tween-80
[11] = dose: 400.0 mg/kg/injection, schedule: Q04DX003 (ip), vehicle: saline with Tween-80
[12] = dose: 50.0 mg/kg/injection, schedule: Q01DX001 (ip), vehicle: Klucel (hydroxypropylcellulose) (HPC)
[13] = dose: 100.0 mg/kg/injection, schedule: Q01DX009 (ip), vehicle: Klucel (hydroxypropylcellulose) (HPC)
[14] = dose: 100.0 mg/kg/injection, schedule: Q04DX003 (ip), vehicle: Klucel (hydroxypropylcellulose) (HPC)
[15] = dose: 200.0 mg/kg/injection, schedule: Q01DX009 (ip), vehicle: Klucel (hydroxypropylcellulose) (HPC)
[16] = dose: 400.0 mg/kg/injection, schedule: Q01DX009 (ip), vehicle: Klucel (hydroxypropylcellulose) (HPC)

Measured: T/C

CC1C(=O)C(C)C(C(=O)O)C1C (stereo not drawn)
inactive: [1] 100 % of control | [2] 107 % of control | dose: 400.0 mg/kg/injection, schedule: Q04DX002 (ip), vehicle: Klucel (hydroxypropylcellulose) (HPC) 93 % of control

CCOC(=O)C(CC)C(O)c1cccc(OC)c1 (stereo not drawn)
inactive: [3] 94 % of control | [4] 94 % of control | dose: 200.0 mg/kg/injection, schedule: Q01DX009 (ip), vehicle: saline with Tween-80 94 % of control

CC(C)C(=O)Nc1ccc(Cl)c(Cl)c1
inactive: dose: 222.0 mg/kg/injection, schedule: Q01DX Z (ip), vehicle: methylcellulose (MC) 111 % of control | dose: 333.0 mg/kg/injection, schedule: Q01DX Z (ip), vehicle: methylcellulose (MC) 98 % of control | dose: 500.0 mg/kg/injection, schedule: Q01DX Z (ip), vehicle: methylcellulose (MC) 102 % of control

Cn1[nH]c(NC=O)c2cc3c(=O)[nH]c(=O)cc3nc21
inactive: [5] 93 % of control | [6] 90 % of control

CCOC(=O)c1cccnc1NC(=O)c1ccccc1
inactive: [7] 97 % of control | [1] 97 % of control and 103 % of control | [2] 100 % of control and 101 % of control | dose: 800.0 mg/kg/injection, schedule: Q04DX002 (ip), vehicle: Klucel (hydroxypropylcellulose) (HPC) 105 % of control

O=C1OC(c2cccc(Cl)c2)=N/C1=C\c1ccc2c(c1)OCO2
inactive: dose: 100.0 mg/kg/injection, schedule: Q04DX002 (ip), vehicle: saline with Tween-80 95 % of control | dose: 200.0 mg/kg/injection, schedule: Q04DX002 (ip), vehicle: saline with Tween-80 89 % of control | dose: 400.0 mg/kg/injection, schedule: Q04DX002 (ip), vehicle: saline with Tween-80 92 % of control

COc1ccc2oc(=O)[nH]c2c1
inactive: dose: 100.0 mg/kg/injection, schedule: Q01DX001 (ip), vehicle: saline with Tween-80 100 % of control | dose: 200.0 mg/kg/injection, schedule: Q01DX001 (ip), vehicle: saline with Tween-80 100 % of control | dose: 400.0 mg/kg/injection, schedule: Q01DX001 (ip), vehicle: saline with Tween-80 100 % of control

CCOC(=O)C1CNc2ccccc2N1 (stereo not drawn)
inactive: [8] 93 % of control | [3] 110 % of control | [9] 105 % of control

CC(Br)C(=O)Nc1ccc(C(=O)O)c(O)c1 (stereo not drawn)
inactive: [8] 112 % of control | [3] 98 % of control | [4] 100 % of control and 107 % of control

CCCCCCCC/C=C\CCCCCCCC(=O)NCCOC
inactive: dose: 37.5 mg/kg/injection, schedule: Q01DX009 (ip), vehicle: saline 97 % of control | dose: 75.0 mg/kg/injection, schedule: Q01DX009 (ip), vehicle: saline 92 % of control | dose: 75.0 mg/kg/injection, schedule: Q04DX003 (ip), vehicle: saline 90 % of control | dose: 150.0 mg/kg/injection, schedule: Q01DX009 (ip), vehicle: saline 99 % of control | dose: 150.0 mg/kg/injection, schedule: Q04DX003 (ip), vehicle: saline 98 % of control | dose: 300.0 mg/kg/injection, schedule: Q04DX003 (ip), vehicle: saline 88 % of control

O=C(Cl)C(Cl)(Cl)Cl
inactive: dose: 100.0 mg/kg/injection, schedule: Q04DX002 (sc), vehicle: olive oil, sesame oil, peanut oil 103 % of control | dose: 200.0 mg/kg/injection, schedule: Q04DX002 (sc), vehicle: olive oil, sesame oil, peanut oil 116 % of control | dose: 400.0 mg/kg/injection, schedule: Q04DX002 (sc), vehicle: olive oil, sesame oil, peanut oil 100 % of control

COc1ccc(OC(=O)Nc2ccc(C)cc2[N+](=O)[O-])cc1
inactive: [9] 102 % of control | [10] 98 % of control | [11] 93 % of control

CCC(C)(O)C#N (stereo not drawn)
inactive: dose: 2.2 mg/kg/injection, schedule: Q01DX Z (ip), vehicle: saline 104 % of control | dose: 3.3 mg/kg/injection, schedule: Q01DX Z (ip), vehicle: saline 94 % of control | dose: 5.0 mg/kg/injection, schedule: Q01DX Z (ip), vehicle: saline 98 % of control

CC(C)=CCC(CCN1CCCCC1)(C(N)=O)c1cccc2ccccc12 (stereo not drawn)
inactive: dose: 1.5 mg/kg/injection, schedule: Q01DX009 (ip), vehicle: Klucel (hydroxypropylcellulose) (HPC) 104 % of control | dose: 3.12 mg/kg/injection, schedule: Q01DX009 (ip), vehicle: Klucel (hydroxypropylcellulose) (HPC) 104 % of control | dose: 6.25 mg/kg/injection, schedule: Q01DX009 (ip), vehicle: Klucel (hydroxypropylcellulose) (HPC) 95 % of control | dose: 6.25 mg/kg/injection, schedule: Q04DX002 (ip), vehicle: Klucel (hydroxypropylcellulose) (HPC) 97 % of control | dose: 12.5 mg/kg/injection, schedule: Q04DX002 (ip), vehicle: Klucel (hydroxypropylcellulose) (HPC) 97 % of control | dose: 25.0 mg/kg/injection, schedule: Q04DX002 (ip), vehicle: Klucel (hydroxypropylcellulose) (HPC) 103 % of control

N=C(N)S(=O)O
inactive: [4] 104 % of control

CC(=O)OC(=O)c1ccc2c(c1)C(=O)c1ccccc1C2=O
inactive: dose: 25.0 mg/kg/injection, schedule: Q01DX009 (ip), vehicle: Klucel (hydroxypropylcellulose) (HPC) 100 % of control | [12] 105 % of control | dose: 50.0 mg/kg/injection, schedule: Q01DX009 (ip), vehicle: Klucel (hydroxypropylcellulose) (HPC) 98 % of control | [5] 111 % of control | [13] 102 % of control | [14] 100 % of control | [6] 111 % of control | dose: 400.0 mg/kg/injection, schedule: Q01DX001 (ip), vehicle: Klucel (hydroxypropylcellulose) (HPC) 96 % of control and 105 % of control

CCN(CC)CCNCC(Cc1ccccc1)c1ccccc1 (stereo not drawn)
inactive: dose: 100.0 mg/kg/injection, schedule: Q04DX002 (ip), vehicle: saline 99 % of control | dose: 200.0 mg/kg/injection, schedule: Q04DX002 (ip), vehicle: saline 105 % of control

OC(COc1ccc(Cl)cc1)CN1CCN(c2ccc(Cl)cc2)CC1 (stereo not drawn)
inactive: dose: 100.0 mg/kg/injection, schedule: Q01DX001 (ip), vehicle: saline 97 % of control | dose: 200.0 mg/kg/injection, schedule: Q01DX001 (ip), vehicle: saline 95 % of control | dose: 400.0 mg/kg/injection, schedule: Q01DX001 (ip), vehicle: saline 95 % of control

CC(C)(C)NCCCC(=O)O
inactive: [9] 110 % of control | [10] 100 % of control | [11] 92 % of control

NNC(=O)CNc1cccc(Br)c1
inactive: [7] 101 % of control and 92 % of control | [1] 114 % of control and 120 % of control | [2] 108 % of control

C=CC1CC[N-]CC1.C=CC1CC[N-]CC1.C=CC1CC[N-]CC1.[Cl][Cr]([Cl])[Cl]
inactive: dose: 25.0 mg/kg/injection, schedule: Q01DX009 (ip), vehicle: saline 97 % of control | dose: 50.0 mg/kg/injection, schedule: Q01DX009 (ip), vehicle: saline 94 % of control

Cc1cccc(Cl)c1NC(=O)Nc1ccc(CCO)cc1
inactive: [13] 103 % of control | [15] 97 % of control | [16] 94 % of control

CN1CCC(OC(=O)C(C)(O)C#Cc2ccccc2)CC1 (stereo not drawn)
inactive: [12] 102 % of control | [5] 97 % of control | [6] 100 % of control

O=C(Nc1ccc(C2=NCCN2)cc1)c1cc(C(=O)Nc2ccc(C3=NCCN3)cc2)cc([N+](=O)[O-])c1
active: dose: 375.0 mg/kg/injection, schedule: Q01DX Z (ip), vehicle: methylcellulose (MC) 168 % of control | dose: 512.0 mg/kg/injection, schedule: Q01DX Z (ip), vehicle: methylcellulose (MC) 234 % of control | dose: 768.0 mg/kg/injection, schedule: Q01DX Z (ip), vehicle: methylcellulose (MC) 268 % of control
inactive: dose: 111.0 mg/kg/injection, schedule: Q01DX Z (ip), vehicle: methylcellulose (MC) 100 % of control | dose: 167.0 mg/kg/injection, schedule: Q01DX Z (ip), vehicle: methylcellulose (MC) 104 % of control
105 % of control and 207 % of control: dose: 250.0 mg/kg/injection, schedule: Q01DX Z (ip), vehicle: methylcellulose (MC)
